Reference: patent US20230265151A1, “GIP/GLP1 CO-AGONIST COMPOUNDS” (priority 2020, published 2023)
Like-named read-outs stand apart in the source and are kept apart here.

Legend:
Assay type in all cases: cell-based
hGLP-1R = hGLP-1R (Homo sapiens, UniProt P43220); experiment: Functional cAMP formation (HTRF) in HEK-293 clonal cells expressing hGLP-1R, 0.1% bovine casein, without or with 1.0% human serum albumin; set-up: expressed in transfected cells; conditions: for Emax: percent of maximal response to GLP-1(7-36)NH2; for EC50: hGLP-1R EC50, nM (SEM, n), cAMP, 37° C., 0.1% bovine casein (no human serum albumin), geometric mean
hGLP-1R, sequence (P43220 24-463): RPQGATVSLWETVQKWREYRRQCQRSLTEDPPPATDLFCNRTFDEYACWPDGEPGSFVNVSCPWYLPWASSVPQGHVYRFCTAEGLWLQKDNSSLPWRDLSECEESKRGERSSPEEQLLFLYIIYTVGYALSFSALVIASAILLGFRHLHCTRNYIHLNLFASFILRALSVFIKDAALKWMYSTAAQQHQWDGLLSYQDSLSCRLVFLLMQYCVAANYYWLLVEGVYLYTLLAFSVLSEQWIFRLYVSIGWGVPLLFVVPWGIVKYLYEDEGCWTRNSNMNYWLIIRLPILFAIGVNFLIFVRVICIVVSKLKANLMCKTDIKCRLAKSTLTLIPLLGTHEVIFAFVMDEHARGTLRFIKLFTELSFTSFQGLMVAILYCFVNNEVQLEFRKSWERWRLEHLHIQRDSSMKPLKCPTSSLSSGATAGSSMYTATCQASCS
How it was run: (§1)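 Readings of the HTRF 665/620 nm ratio, which falls as cAMP rises, were converted to nM cAMP using a standard curve after 30 min peptide exposure at 37° C.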

hGIPR = molecular target: T1, hGIPR (Homo sapiens, UniProt P48546); experiment: Functional cAMP formation (HTRF) in HEK-293 clonal cells expressing hGIPR, 0.1% bovine casein, without or with 1.0% human serum albumin; conditions: for Emax: percent of maximal response to GIP(1-42)NH2; for EC50: hGIPR EC50, nM (SEM, n), 37° C., geometric mean
T1 construct: expressed in transfected cells
T1 sequence (P48546 22-466): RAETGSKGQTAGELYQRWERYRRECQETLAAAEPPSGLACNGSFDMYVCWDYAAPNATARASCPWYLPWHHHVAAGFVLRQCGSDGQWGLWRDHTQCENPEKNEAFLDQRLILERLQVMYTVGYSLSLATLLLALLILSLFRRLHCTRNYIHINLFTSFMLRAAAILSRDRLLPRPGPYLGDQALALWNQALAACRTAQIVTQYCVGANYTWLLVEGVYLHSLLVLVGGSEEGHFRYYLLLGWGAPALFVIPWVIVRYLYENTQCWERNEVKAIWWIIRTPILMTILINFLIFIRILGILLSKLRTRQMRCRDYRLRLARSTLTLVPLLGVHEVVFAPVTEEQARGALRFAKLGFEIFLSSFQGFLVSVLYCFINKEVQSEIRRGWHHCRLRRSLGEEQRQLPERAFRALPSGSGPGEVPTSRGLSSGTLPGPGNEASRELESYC
How it was run: as §1

hGCGR = molecular target: T2, hGCGR (Homo sapiens, UniProt P47871); experiment: Functional cAMP formation (HTRF) in HEK-293 clonal cells expressing hGCGR, 0.1% bovine casein, without or with 1.0% human serum albumin; conditions: hGCGR EC50, nM (SEM, n), 37° C., geometric mean
T2 construct: expressed in transfected cells
T2 sequence (P47871 26-477): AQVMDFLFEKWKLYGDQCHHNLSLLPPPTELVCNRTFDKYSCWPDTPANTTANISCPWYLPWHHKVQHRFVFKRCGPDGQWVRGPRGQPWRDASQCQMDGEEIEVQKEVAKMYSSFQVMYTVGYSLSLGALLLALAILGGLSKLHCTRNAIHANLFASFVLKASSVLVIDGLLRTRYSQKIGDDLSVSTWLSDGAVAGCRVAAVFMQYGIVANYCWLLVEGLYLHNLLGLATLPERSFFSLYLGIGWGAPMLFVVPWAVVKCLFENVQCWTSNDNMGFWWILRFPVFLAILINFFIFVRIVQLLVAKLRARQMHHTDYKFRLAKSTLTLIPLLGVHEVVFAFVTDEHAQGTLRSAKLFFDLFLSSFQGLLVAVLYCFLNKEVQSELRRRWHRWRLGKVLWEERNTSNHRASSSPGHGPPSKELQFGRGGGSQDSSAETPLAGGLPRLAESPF
How it was run: as §1

[1] = HEK293, read-out: hGLP-1R Emax, % ± SEM, 0.1% bovine casein and 1.0% human serum albumin, 37° C.
[2] = HEK293, read-out: hGLP-1R Emax, % ± SEM, cAMP, 37° C., 0.1% bovine casein, arithmetic mean
[3] = HEK293, read-out: hGIPR Emax, % ± SEM, cAMP, 37° C., 0.1% bovine casein, arithmetic mean
[4] = cAMP, 0.1% bovine casein (no human serum albumin)
[5] = 0.1% bovine casein and 1.0% human serum albumin
[6] = HEK293, read-out: hGIPR Emax, % ± SEM, 0.1% bovine casein and 1.0% human serum albumin, 37° C.

Structure (SMILES) | Emax (hGLP-1R; [1]) | Emax (hGLP-1R; [2]) | EC50 (hGLP-1R) | Emax (hGIPR; [3]) | EC50 (hGIPR; [4]) | EC50 (hGCGR; [5]) | EC50 (hGCGR; [4]) | Emax (hGIPR; [6]) | EC50 (hGIPR; [5])
CC[C@H](C)[C@H](NC(=O)[C@H](CCCN)NC(=O)[C@H](CC(=O)O)NC(=O)[C@H](CC(C)C)NC(=O)[C@](C)(CC(C)C)NC(=O)[C@@H](NC(=O)[C@H](CO)NC(=O)[C@H](Cc1ccc2ccccc2c1)NC(=O)[C@H](CC(=O)O)NC(=O)[C@H](CO)NC(=O)[C@@H](NC(=O)[C@](C)(Cc1ccccc1F)NC(=O)[C@@H](NC(=O)CNC(=O)[C@H](CCC(=O)O)NC(=O)C(C)(C)NC(=O)[C@@H](N)Cc1ccc(O)cc1)[C@@H](C)O)[C@@H](C)O)[C@@H](C)CC)C(=O)N[C@@H](C)C(=O)N[C@@H](CCC(N)=O)C(=O)NC(C)(C)C(=O)N[C@@H](CCCCNC(=O)COCCOCCNC(=O)COCCOCCNC(=O)CC[C@H](NC(=O)CCCCCCCCCOc1ccc(C(=O)O)cc1)C(=O)O)C(=O)N[C@@H](Cc1ccccc1)C(=O)N[C@H](C(=O)N[C@H](CCC(=O)O)C(=O)N[C@@](C)(Cc1ccc(O)cc1)C(=O)N[C@@H](CC(C)C)C(=O)N[C@H](C(=O)N[C@@H](CCCCNC(=O)COCCOCCNC(=O)COCCOCCNC(=O)CC[C@H](NC(=O)CCCCCCCCCOc1ccc(C(=O)O)cc1)C(=O)O)C(=O)NCC(=O)NCC(=O)N1CCC[C@H]1C(=O)N[C@@H](CO)C(=O)N[C@@H](CO)C(=O)NCC(=O)N[C@@H](C)C(=O)N1CCC[C@H]1C(=O)N1CCC[C@H]1C(=O)N1CCC[C@H]1C(=O)N[C@@H](CO)C(N)=O)[C@@H](C)CC)[C@@H](C)CC [Example 284] | 112% | 110% | 0.505 nM | 98.3% | 0.0389 nM | > 9950 nM | > 9950 nM |  | 
CC[C@H](C)[C@H](NC(=O)[C@H](CC(C)C)NC(=O)[C@](C)(Cc1ccc(O)cc1)NC(=O)[C@@H](CCC(=O)O)NC(=O)[C@@H](NC(=O)[C@H](Cc1ccccc1)NC(=O)[C@H](CCC(=O)O)NC(=O)C(C)(C)NC(=O)[C@H](CCC(N)=O)NC(=O)[C@H](C)NC(=O)[C@H](CCCCNC(=O)COCCOCCNC(=O)COCCOCCNC(=O)CC[C@H](NC(=O)CCCCCCCCCCOc1ccc(C(=O)O)cc1)C(=O)O)NC(=O)[C@H](CCCN)NC(=O)[C@H](CC(=O)O)NC(=O)[C@H](CC(C)C)NC(=O)[C@](C)(CC(C)C)NC(=O)[C@@H](NC(=O)[C@H](CO)NC(=O)[C@H](Cc1ccncc1)NC(=O)[C@H](CC(=O)O)NC(=O)[C@H](CO)NC(=O)[C@@H](NC(=O)[C@](C)(Cc1ccccc1F)NC(=O)[C@@H](NC(=O)CNC(=O)[C@H](CCC(=O)O)NC(=O)C(C)(C)NC(=O)[C@@H](N)Cc1ccc(O)cc1)[C@@H](C)O)[C@@H](C)O)[C@@H](C)CC)[C@@H](C)CC)C(=O)N[C@@H](CCC(=O)O)C(=O)NCC(=O)NCC(=O)N1CCC[C@H]1C(=O)N[C@@H](CO)C(=O)N[C@@H](CO)C(=O)NCC(=O)N[C@@H](C)C(=O)N1CCC[C@H]1C(=O)N1CCC[C@H]1C(=O)N1CCC[C@H]1C(=O)N[C@@H](CO)C(=O)N[C@@H](CCCCNC(=O)COCCOCCNC(=O)COCCOCCNC(=O)CC[C@H](NC(=O)CCCCCCCCCCOc1ccc(C(=O)O)cc1)C(=O)O)C(N)=O [Example 285] | 105% |  | 1.21 nM |  | 0.0115 nM | > 9950 nM | > 9950 nM | 84.7% | 1.28 nM
CC[C@H](C)[C@H](NC(=O)[C@H](CCCN)NC(=O)[C@H](CC(=O)O)NC(=O)[C@H](CC(C)C)NC(=O)[C@](C)(CC(C)C)NC(=O)[C@@H](NC(=O)[C@H](CO)NC(=O)[C@H](Cc1ccncc1)NC(=O)[C@H](CC(=O)O)NC(=O)[C@H](CO)NC(=O)[C@@H](NC(=O)[C@](C)(Cc1ccccc1F)NC(=O)[C@@H](NC(=O)CNC(=O)[C@H](CCC(=O)O)NC(=O)C(C)(C)NC(=O)[C@@H](N)Cc1ccc(O)cc1)[C@@H](C)O)[C@@H](C)O)[C@@H](C)CC)C(=O)N[C@@H](C)C(=O)N[C@@H](CCC(N)=O)C(=O)NC(C)(C)C(=O)N[C@@H](CCC(=O)O)C(=O)N[C@@H](Cc1ccccc1)C(=O)N[C@H](C(=O)N[C@@H](CCCCNC(=O)COCCOCCNC(=O)COCCOCCNC(=O)CC[C@H](NC(=O)CCCCCCCCCCOc1ccc(C(=O)O)cc1)C(=O)O)C(=O)N[C@@](C)(Cc1ccc(O)cc1)C(=O)N[C@@H](CC(C)C)C(=O)N[C@H](C(=O)N[C@@H](CCCCNC(=O)COCCOCCNC(=O)COCCOCCNC(=O)CC[C@H](NC(=O)CCCCCCCCCCOc1ccc(C(=O)O)cc1)C(=O)O)C(=O)NCC(=O)NCC(=O)N1CCC[C@H]1C(=O)N[C@@H](CO)C(=O)N[C@@H](CO)C(=O)NCC(=O)N[C@@H](C)C(=O)N1CCC[C@H]1C(=O)N1CCC[C@H]1C(=O)N1CCC[C@H]1C(=O)N[C@@H](CO)C(N)=O)[C@@H](C)CC)[C@@H](C)CC [Example 286] | 90.3% | 110% |  |  |  | > 9950 nM | > 9950 nM |  | 2.18 nM
CC[C@H](C)[C@H](NC(=O)[C@H](CCCN)NC(=O)[C@H](CC(=O)O)NC(=O)[C@H](CC(C)C)NC(=O)[C@](C)(CC(C)C)NC(=O)[C@@H](NC(=O)[C@H](CO)NC(=O)[C@H](Cc1ccncc1)NC(=O)[C@H](CC(=O)O)NC(=O)[C@H](CO)NC(=O)[C@@H](NC(=O)[C@](C)(Cc1ccccc1F)NC(=O)[C@@H](NC(=O)CNC(=O)[C@H](CCC(=O)O)NC(=O)C(C)(C)NC(=O)[C@@H](N)Cc1ccc(O)cc1)[C@@H](C)O)[C@@H](C)O)[C@@H](C)CC)C(=O)N[C@@H](C)C(=O)N[C@@H](CCC(N)=O)C(=O)NC(C)(C)C(=O)N[C@@H](CCCCNC(=O)COCCOCCNC(=O)COCCOCCNC(=O)CC[C@H](NC(=O)CCCCCCCCCCOc1ccc(C(=O)O)cc1)C(=O)O)C(=O)N[C@@H](Cc1ccccc1)C(=O)N[C@H](C(=O)N[C@H](CCC(=O)O)C(=O)N[C@@](C)(Cc1ccc(O)cc1)C(=O)N[C@@H](CC(C)C)C(=O)N[C@H](C(=O)N[C@@H](CCCCNC(=O)COCCOCCNC(=O)COCCOCCNC(=O)CC[C@H](NC(=O)CCCCCCCCCCOc1ccc(C(=O)O)cc1)C(=O)O)C(=O)NCC(=O)NCC(=O)N1CCC[C@H]1C(=O)N[C@@H](CO)C(=O)N[C@@H](CO)C(=O)NCC(=O)N[C@@H](C)C(=O)N1CCC[C@H]1C(=O)N1CCC[C@H]1C(=O)N1CCC[C@H]1C(=O)N[C@@H](CO)C(N)=O)[C@@H](C)CC)[C@@H](C)CC [Example 287] |  | 97.2% |  | 93% |  | > 9950 nM | > 9950 nM | 98.9% | 
